Experimental findings from patent US20070099259A1, “ELECTROCHEMICAL ASSAY FOR THE IDENTIFICATION OF MICROORGANISMS” (RAPID LABORATORY MICROSYSTEMS INC., priority 2003, published 2007) are described below.

Holding throughout (assay): Relative respiratory activity with 22 effectors (Example 3)
Test [1] has as its system P. vulgaris ATCC6380. The class given is cell-based, Proteus vulgaris. The note with it: 5 μM DCIP, no effector = 100%, n = 20; for relative %-respiratory activity / activity at 10000 µM: effector 10 mM; for activity at 10000 µM: read-out: relative %-respiratory activity; for activity at 20000 µM: effector 20 mM. The source says:
(§1) In this example, each microorganism is subjected to 22 different effector compounds in addition to control measurements. […] For each microorganism, duplicate measurements were made of 22 different effector compounds. In addition, duplicate measurements were made a control test containing no effector compound. One additional measurement was made of a control solution containing the microorganism with ferricyanide but without effector or DCIP.
(§2) In this example, each normalized data set containing duplicate measurements for each of 22 effector compounds is referenced to the duplicate internal controls to allow batch-to-batch comparison. The obtained signals of charge per unit electrode area for the duplicate control measurements are averaged and set at 100% respiratory cycle activity. […] The data set used to generate pattern recognition plots consists of 5 replicate batches (each batch containing duplicate measurements for each of 22 effector compounds) for each cell culture (10 strains). This is used to generate a 50 (columns)×22 (rows) matrix. The matrix is imported into MATLAB (Version 6.0). Factor analysis is performed using the MATLAB Chemometric Toolbox (Version 2.3) and involves the generation of reduced eigenvectors to determine the optimal number of factors, examination of the resulting residuals plots for randomness, and the generation of scores for the first four principle components.

Test [2] relates to E. faecalis. The class given is cell-based, Enterococcus faecalis. The note with it: 5 μM DCIP, no effector = 100%, n = 20; for relative %-respiratory activity / activity at 10000 µM: effector 10 mM; for activity at 10000 µM: read-out: relative %-respiratory activity; for activity at 20000 µM: effector 20 mM.
Excerpt: as §1, §2

Test [3] has as its system E. aerogenes ATCC13048e. The class given is cell-based, Enterobacter aerogenes. As to conditions: 5 μM DCIP, no effector = 100%, n = 26; for relative %-respiratory activity / activity at 10000 µM: effector 10 mM; for activity at 10000 µM: read-out: relative %-respiratory activity; for activity at 20000 µM: effector 20 mM.
Excerpt: as §1, §2

Test [4] concerns E. coli B. It counts as cell-based. As to conditions: 5 μM DCIP, no effector = 100%, n = 10; for activity at 20000 µM: effector 20 mM.
Excerpt: as §1, §2

The subject of test [5] is E. coli HB101. The class given is cell-based. The note with it: 5 μM DCIP, no effector = 100%, n = 18; for relative %-respiratory activity / activity at 10000 µM: effector 10 mM; for activity at 10000 µM: read-out: relative %-respiratory activity; for activity at 20000 µM: effector 20 mM.
Excerpt: as §1, §2

Test [6] concerns E. coli JM105. It counts as cell-based. The note with it: 5 μM DCIP, no effector = 100%, n = 10; for relative %-respiratory activity / activity at 10000 µM: effector 10 mM; for activity at 10000 µM: read-out: relative %-respiratory activity; for activity at 20000 µM: effector 20 mM.
Excerpt: as §1, §2

Test [7] deals with E. coli Neotype. The class given is cell-based. The note with it: 5 μM DCIP, no effector = 100%, n = 26; for relative %-respiratory activity / activity at 10000 µM: effector 10 mM; for activity at 10000 µM: read-out: relative %-respiratory activity; for activity at 20000 µM: effector 20 mM.
Excerpt: as §1, §2

For test [8], the system named is P. aeruginosa. It counts as cell-based, Pseudomonas aeruginosa. As to conditions: 5 μM DCIP, no effector = 100%, n = 18; for relative %-respiratory activity / activity at 10000 µM: effector 10 mM; for activity at 10000 µM: read-out: relative %-respiratory activity; for activity at 20000 µM: effector 20 mM.
Excerpt: as §1, §2

For test [9], the system named is S. aureus ATCC6538P. The class given is cell-based, Staphylococcus aureus. The note with it: 5 μM DCIP, no effector = 100%, n = 20; for relative %-respiratory activity / activity at 10000 µM: effector 10 mM; for activity at 10000 µM: read-out: relative %-respiratory activity; for activity at 20000 µM: effector 20 mM.
Excerpt: as §1, §2

The subject of test [10] is S. cerevisiae. The class given is cell-based, Saccharomyces cerevisiae. The note with it: 5 μM DCIP, no effector = 100%, n = 10; for relative %-respiratory activity / activity at 10000 µM: effector 10 mM; for activity at 10000 µM: read-out: relative %-respiratory activity; for activity at 20000 µM: effector 20 mM.
Excerpt: as §1, §2

The mark [11] stands for this setting: Klebsiella aerogenes, ATCC13048E.
Setting [12] is: Staphylococcus aureus, ATCC6538P.
Where [13] appears, read: Escherichia coli, effector 30 mM.

For the compound `O=C(O)CCC(=O)C(=O)O` [Alpha-ketoglutarate], the relative %-respiratory activity in test [1] is listed as 201%; in [2] it was 109%; in test [3] it was 102%; in test [4] (effector 10 mM), 130%; in test [5] it was 116%; in [6], 142%. Further, the relative %-respiratory activity in test [7] was determined as 100%; in test [8] it was 97%; in [9], 115%; in test [10], 124%.

Regarding `OC[C@H]1O[C@@H]2O[C@H]3[C@H](O)[C@@H](O)[C@@H](O[C@H]4[C@H](O)[C@@H](O)[C@@H](O[C@H]5[C@H](O)[C@@H](O)[C@@H](O[C@H]6[C@H](O)[C@@H](O)[C@@H](O[C@H]7[C@H](O)[C@@H](O)[C@@H](O[C@H]8[C@H](O)[C@@H](O)[C@@H](O[C@H]1[C@H](O)[C@H]2O)O[C@@H]8CO)O[C@@H]7CO)O[C@@H]6CO)O[C@@H]5CO)O[C@@H]4CO)O[C@@H]3CO` [Beta-cyclodextrin], the activity at 10000 µM in test [1] (Proteus vulgaris, ATCC6380) is 151%; in [2] (Enterococcus faecalis) it was 155%; in [3] (setting [11]), 110%; in [4] (Escherichia coli, effector 10 mM, read-out: relative %-respiratory activity), 125%; in test [5] (Escherichia coli, HB101), 132%; in test [6] (Escherichia coli, JM105), 187%. Also, the activity at 10000 µM in [7] (Escherichia coli) worked out at 81%; in test [8] (Pseudomonas aeruginosa), 90%; in [9] (setting [12]), 98%; in test [10] (Saccharomyces cerevisiae), 112%.

Turning to `O=P(O)(O)OC(CO)CO` [Beta-glycerophosphate], the relative %-respiratory activity in [1] is reported as 136%; in test [2] it was 120%; in test [3] it was 131%; in test [5], 110%; in test [6], 121%; in test [7], 108%. Besides, the relative %-respiratory activity is reported as 114% in [8], 114% in test [9] and 105% in test [10].

Turning to `O=C(O)CC(O)(CC(=O)O)C(=O)O` [Citric acid], the activity at 20000 µM in [1] (Proteus vulgaris, ATCC6380) was 142%; in test [2] (Enterococcus faecalis), 117%; in test [3] (setting [11]) it was 163%; in [4] (Escherichia coli), 161%; in [5] (Escherichia coli, HB101), 137%; in test [6] (Escherichia coli, JM105), 113%. For the same compound, the activity at 20000 µM in [7] (Escherichia coli) came out at 158%; in test [8] (Pseudomonas aeruginosa), 87%; in test [9] (setting [12]), 83%; in [10] (Saccharomyces cerevisiae), 103%.

With `O=C[C@@H](O)[C@H](O)[C@H](O)CO` [D-arabinose], the activity at 20000 µM in test [1] (Proteus vulgaris, ATCC6380) was found to be 150%; in test [2] (Enterococcus faecalis) it was 139%; in [3] (setting [11]), 106%; in [4] (Escherichia coli) it was 118%; in test [5] (Escherichia coli, HB101), 107%; in test [6] (Escherichia coli, JM105), 137%. Besides, the activity at 20000 µM was determined as 103% in [7] (Escherichia coli), 113% in [8] (Pseudomonas aeruginosa), 115% in test [9] (setting [12]) and 143% in [10] (Saccharomyces cerevisiae).

Turning to `O=C(CO)[C@@H](O)[C@H](O)[C@H](O)CO` [D-fructose], the activity at 20000 µM stood at 183% in [1] (Proteus vulgaris, ATCC6380); 463% in test [2] (Enterococcus faecalis); 275% in test [3] (setting [11]); 147% in test [4] (Escherichia coli); 202% in test [5] (Escherichia coli, HB101); 202% in [6] (Escherichia coli, JM105). In addition, the activity at 20000 µM came to 125% in test [7] (Escherichia coli), 136% in [8] (Pseudomonas aeruginosa), 289% in test [9] (setting [12]) and 152% in test [10] (Saccharomyces cerevisiae).

`O=C[C@H](O)[C@@H](O)[C@@H](O)[C@H](O)CO` [D-galactose]: the activity at 20000 µM in test [1] (Proteus vulgaris, ATCC6380) amounted to 341%; in test [2] (Enterococcus faecalis), 200%; in [3] (setting [11]), 334%; in test [4] (Escherichia coli) it was 165%; in test [5] (Escherichia coli, HB101) it was 153%; in [6] (Escherichia coli, JM105) it was 173%. Also, the activity at 20000 µM in [7] (Escherichia coli) is 155%; in [8] (Pseudomonas aeruginosa), 130%; in test [9] (setting [12]) it was 195%; in test [10] (Saccharomyces cerevisiae), 143%.

With `OC[C@H]1O[C@@H](O[C@H]2[C@H](O)[C@@H](O)C(O)O[C@@H]2CO)[C@H](O)[C@@H](O)[C@H]1O` (stereo partly drawn) [D-lactose], the activity at 20000 µM in test [1] (Proteus vulgaris, ATCC6380) turned out to be 162%; in test [2] (Enterococcus faecalis) it was 123%; in test [3] (setting [11]), 268%; in [4] (Escherichia coli), 164%; in [5] (Escherichia coli, HB101), 192%; in test [6] (Escherichia coli, JM105), 115%. Moreover, the activity at 20000 µM was 150% in [7] (Escherichia coli), 108% in test [8] (Pseudomonas aeruginosa), 138% in [9] (setting [12]) and 126% in test [10] (Saccharomyces cerevisiae).

In the case of `OC[C@@H](O)[C@@H](O)[C@H](O)[C@@H](O)CO` [D-sorbitol], the activity at 30000 µM in [1] (Proteus vulgaris, ATCC6380, effector 30 mM) amounted to 186%; in test [2] (Enterococcus faecalis, effector 30 mM) it was 179%; in test [3] (Klebsiella aerogenes, ATCC13048E, effector 30 mM) it was 260%; in test [4] (setting [13]), 136%; in test [5] (Escherichia coli, HB101, effector 30 mM) it was 124%; in [6] (Escherichia coli, JM105, effector 30 mM), 168%. Further, the activity at 30000 µM turned out to be 111% in test [7] (setting [13]); 104% in test [8] (Pseudomonas aeruginosa, effector 30 mM); 167% in [9] (Staphylococcus aureus, ATCC6538P, effector 30 mM); 113% in [10] (Saccharomyces cerevisiae, effector 30 mM).

Turning to `O=C(O)CC(=O)O` [Malonic acid], the activity at 10000 µM in test [1] (Proteus vulgaris, ATCC6380) was determined as 125%; in [2] (Enterococcus faecalis), 146%; in test [3] (setting [11]), 156%; in [5] (Escherichia coli, HB101), 124%; in [6] (Escherichia coli, JM105), 160%; in test [7] (Escherichia coli), 141%. The activity at 10000 µM was 125% in test [8] (Pseudomonas aeruginosa), 117% in test [9] (setting [12]) and 110% in test [10] (Saccharomyces cerevisiae).
